In patent US11931463B2, “All-in-one fixed-dose combination for treating Helicobacter pylori infection” (RedHill Biopharma Ltd., priority 2013, dated 2024):
Like-named read-outs stand apart in the source and are kept apart here. One block for each compound: values may come before it.

Legend:
[1] = cited from earlier work
clinical [2] = details: for concentration at 0.5 h / concentration at 1 h / concentration at 2 h / concentration at 3 h: both, human, in vivo
Procedure: A single center, randomized, single and multiple doses, open-label, 2-period, 2-sequence, crossover study was carried out on male and female volunteers.
A Phase I Open-Label, 2-Arm Crossover Study to Evaluate the Relative Bioavailability of the pharmaceutical composition, also herein as test formulation (Rifabutin/Amoxicillin/Omeprazole 12.5 mg/250 mg/10 mg) capsules given 3 times a day, every 8 hours, compared to the concomitant administration of the three drug substance components in fasted healthy volunteers (Table 13). Test formulation (Treatment-1) was analyzed in comparison to the pharmacokinetics of the reference drugs rifabutin, amoxicillin and omeprazole given concomitantly (Treatment-2) under fasting conditions.
Treatment-1: 4× Test formulation Amoxicillin, Rifabutin, Omeprazole 250 mg/12.5 mg/10 mg capsules (Test) given three times daily, in the morning, afternoon and evening, 8 hours apart, for a total daily oral dose of 3000 mg/150 mg/120 mg.
Treatment-2: 1× Mycobutin® 150 mg capsule (Reference-1)+2× Amoxicillin 500 mg capsule (Reference-2)+1× Prilosec® 40 mg delayed-release capsule (Reference-3) taken concomitantly each given three times daily, in the morning, afternoon and evening, 8 hours apart, for a total daily oral dose of 150 mg rifabutin/3000 mg amoxicillin/120 mg omeprazole.
Reference-1 Product, Dose and Mode of Administration: • Name: Mycobutin® • Dosage form/Route of administration: Capsule/Oral • Regimen: Single 150 mg dose (1×150 mg) given once in the morning, for a total daily oral dose of 150 mg.
Reference-2 Product, Dose and Mode of Administration: • Name: Amoxicillin • Dosage form/Route of administration: Capsule/Oral • Regimen: Single 1000 mg dose (2×500 mg) given three times daily, in the morning, afternoon and evening, 8 hours apart, for a total of a total daily oral dose of 3000 mg.
Reference-3 Product, Dose and Mode of Administration: • Name: Prilosec® • Dosage form/Route of administration: Delayed Release Capsule/Oral • Regimen: Single 40 mg dose (1×40 mg), given three times daily, in the morning, afternoon and evening, 8 hours apart, for a total of a total daily oral dose of 120 mg
Treatments: • Treatment-1: 4 capsules of the Test formulation was given three times daily, in the morning, afternoon and evening, 8 hours apart, for a total daily oral dose of 150 mg rifabutin/3000 mg amoxicillin/120 mg omeprazole) • Treatment-2: Reference-1 drug (Rifabutin) was given once in the morning together with 2 capsules of Reference-2 drug (amoxicillin) and 1 capsule of Reference-3 drug (Omeprazole). Each reference drug was given three times daily, in the morning, afternoon and evening, 8 hours apart, for a total daily oral dose of 150 mg rifabutin/3000 mg amoxicillin/120 mg omeprazole).
Single and multiple oral doses were administered under fasting conditions in each study period. The drug administrations were separated by a wash-out of 14 calendar days.
For each Treatment in each study period, 78 blood samples were collected on 26 occasions.
Main absorption and disposition parameters using a non-compartmental approach with a log-linear terminal phase assumption. Trapezoidal rule to estimate the area under the curve. The pharmacokinetic parameters for this study were to be Cmax, Tmax, Cmin, C24, Clast, Tlast, AUC0-24, AUC∞, Kel and T1/2el.
Statistical analysis of Tmax based on a non-parametric approach. Statistical analysis of all other pharmacokinetic parameters based on a parametric ANOVA model. […] ANOVA Model: • fixed factors: sequence, period, treatment • random factor: subject (nested within sequence) Safety: • Descriptive statistics.

[3] = Assay and related substances under accelerated conditions 40° C./75% RH; assay type: physicochemical
[4] = In vitro dissolution assay, 900 ml 0.01 N HCl, 100 rpm, baskets apparatus; assay type: physicochemical
Procedure: (§1) In some embodiments, an average of no less than 80% of amoxicillin is released in 60 min at 100 rpm in a baskets apparatus (900 ml 0.01 N HCl, at 100 rpm in a baskets apparatus). In some embodiments, an average of 90%, 96%, and 97% of the amoxicillin is released in an in vitro dissolution assay at 20, 30, and 45 minutes, respectively.
as §1, with “75%” for “80%”, “rifabutin” for “amoxicillin”, “45” for “60”, “95, 97,” for “90%, 96%,”, “98%” for “97%”

[5] = cited from earlier work; remark: listed apart in the source
plasma proteins = details: cited from earlier work
[6] = cited from earlier work; remark: listed apart in the source
H. pylori = details: cited from earlier work
clinical [7] = details: human, in vivo, 50 mg
[8] = single oral 1000 mg dose of amoxicillin capsules, fasting
[9] = single oral 150 mg dose of rifabutin capsules, fasting

Compound: 25-O-desacetylrifabutin
- plasma metabolite: parent area under the curve ratio ([1]; in vivo): 0.10

Compound: 31-hydroxyrifabutin
- plasma metabolite: parent area under the curve ratio ([1]; in vivo): 0.07

- concentration at 0.5 h (clinical [2]): 2380 ng/mL
- concentration at 1 h (clinical [2]): 8920 ng/mL
- concentration at 2 h (clinical [2]): 14700 ng/mL
- concentration at 3 h (clinical [2]): 11300 ng/mL
- Related Substances, Total ([3]; T = 0): 2.21 % area
- Related Substances, Total ([3]; T = 1 month, 40° C./75% RH): 3.01 % area
- average released in in vitro dissolution assay ([4]; 20 minutes): 90%
- average released in in vitro dissolution assay ([4]; 30 minutes): 96%
- average released in in vitro dissolution assay ([4]; 45 minutes): 97%
Compound: CC1(C)S[C@@H]2[C@H](NC(=O)[C@H](N)c3ccc(O)cc3)C(=O)N2[C@H]1C(=O)O [Amoxicillin]
- T1/2el ([5]; in vivo, po, 1000 mg): 1.15 h
- time to peak serum concentrations ([5]; in vivo, po): 1 to 2 h
- peak serum concentrations relative to equivalent dose of oral ampicillin ([5]; in vivo): 2-2.5 times
- stability in gastric acid ([5]; in vivo): stable in the presence of gastric acid
- Cmax [5, 8]: 14000 ng/mL
- Tmax [5, 8]: 1.65 h

- concentration at 0.5 h (clinical [2]): 85.8 ng/mL
- concentration at 1 h (clinical [2]): 613 ng/mL
- concentration at 2 h (clinical [2]): 828 ng/mL
- concentration at 3 h (clinical [2]): 466 ng/mL
Compound: COc1ccc2[nH]c([S+]([O-])Cc3ncc(C)c(OC)c3C)nc2c1 (centres unmarked) [Omeprazole]
- plasma protein binding (plasma proteins): about 95%
- T1/2el ([6]; in vivo, po, 40 mg): 1 h
- drug absorbed from the gastrointestinal tract ([6]; in vivo, po): approximately 35%
- dose excreted in the feces ([6]; in vivo): 20%
- dose recovered as urinary metabolites ([6]; in vivo): 80%
- time to completion of absorption ([6]; in vivo): ≤ 4 h
- average half-life of the terminal phase ([6]; plasma concentration-time curve): approximately 40 minutes
- Tmax ([6]; single oral 40 mg dose of omeprazole delayed-release capsules, fasting): 1.75 h

Compound: CO[C@H]1/C=C/O[C@@]2(C)Oc3c(C)c(O)c4c(c3C2=O)C2=NC3(CCN(CC(C)C)CC3)NC2=C(NC(=O)/C(C)=C\C=C\[C@H](C)[C@H](O)[C@@H](C)[C@@H](O)[C@@H](C)[C@H](OC(C)=O)[C@@H]1C)C4=O [Rifabutin]
- extent of absorption of rifabutin, single 150 mg capsule relative to test formulation tid (clinical [2]; 150 mg rifabutin over 24 hours in both treatments): 1.5 times
- concentration at 0.5 h (clinical [2]): 5.52 ng/mL
- concentration at 1 h (clinical [2]): 28.1 ng/mL
- concentration at 2 h (clinical [2]): 66.1 ng/mL
- concentration at 3 h (clinical [2]): 72.5 ng/mL
- Related Substances, Total ([3]; T = 0): 1.13 % area
- Related Substances, Total ([3]; T = 1 month, 40° C./75% RH): 2.11 % area
- average released in in vitro dissolution assay ([4]; 20 minutes): 95%
- average released in in vitro dissolution assay ([4]; 30 minutes): 97%
- average released in in vitro dissolution assay ([4]; 45 minutes): 98%
- mean rate of H. pylori resistance (H. pylori; in general): 1.3%
- mean rate of H. pylori resistance (H. pylori; patients naïve to H. pylori eradication treatment): 0.6%
- bound to plasma proteins (plasma proteins; concentration range of 50 to 1000 ng/ml): About 85%
- Cmax (clinical [7]): ~63 ng/mL
- mean systemic clearance ([1]; healthy adult volunteers, single oral dose): 0.69 (±0.32) L/hour/kg
- Cmax ([1]; in vivo, po, 150 mg): 188 ng/mL
- dose absorbed ([1]; in vivo, po): at least 53%
- time to peak plasma concentrations ([1]; in vivo, po): 2 to 4 h
- contribution of renal and of biliary excretion of unchanged drug to systemic clearance ([1]; in vivo): approximately 5%
- decrease of AUC following multiple dosing ([1]; in vivo): 38%
- steady-state trough levels (Cp, Cminss, 24-hour post dose) ([1]; in vivo): 50 to 65 ng/mL
- initial half-life ([1]; plasma elimination, biphasic): approximately 4 hours
- T1/2el [1, 9]: 40 h
- Tmax [1, 9]: 3 h
